In patent publication US9073882B2, “Inhibitors of the renal outer medullary potassium channel” (Merck Sharp & Dohme Corp., priority 2010, dated 2015):
Where two headings read alike, the source gives them in different places.

Target: hROMK1 (Kir1.1) (Homo sapiens (Human), UniProt P48048)
Experiment: ^86Rb^+ Efflux Assay
Format: cell-based
Details: CHO-DHFR- cells stably expressing hROMK1 (Kir1.1)
[1] = value in parentheses at the end of each Example, read-out: IC50 in the ^86Rb^+ Efflux Assay
[2] = Table 1, read-out: ^86Rb^+ Efflux Assay IC50

Chain of hROMK1 (Kir1.1) (P48048 whole entry): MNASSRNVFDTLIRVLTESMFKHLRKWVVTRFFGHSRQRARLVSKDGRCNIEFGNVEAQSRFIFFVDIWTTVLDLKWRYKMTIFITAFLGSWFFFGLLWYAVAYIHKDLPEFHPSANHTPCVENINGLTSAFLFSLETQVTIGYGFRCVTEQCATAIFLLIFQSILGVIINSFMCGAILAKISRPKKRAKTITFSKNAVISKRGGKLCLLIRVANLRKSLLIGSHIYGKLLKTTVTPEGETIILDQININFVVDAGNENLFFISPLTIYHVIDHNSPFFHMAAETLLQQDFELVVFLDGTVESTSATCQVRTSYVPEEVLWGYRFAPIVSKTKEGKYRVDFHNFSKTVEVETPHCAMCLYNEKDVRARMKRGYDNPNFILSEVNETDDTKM

IC50 [1] [nM]	IC50 [2] [nM]	SMILES
730	–	N#Cc1ccc2c(c1)CC(N1CCN(CCc3ccc([N+](=O)[O-])cc3)CC1)C2 (stereo not shown) [Example 29, 2-{4-[2-(4-Nitrophenyl)ethyl]piperazin-1-yl}-2,3-dihydro-1H-indene-5-carbonitrile]
210	–	COc1cc(CC(C)N2CCN(CCc3ccc4c(c3)COC4=O)CC2)ccc1C#N (stereo not shown) [Example 48, 2-Methoxy-4-[2-[4-[2-(1-oxo-3H-isobenzofuran-5-yl)ethyl]piperazin-1-yl]propyl]benzonitrile]
160	–	Cc1c(CCN2CCN(CCc3ccc(C#N)c(OC(F)F)c3)CC2)ccc2c1COC2=O [Example 49, 2-(Difluoromethoxy)-4-[2-[4-[2-(4-methyl-1-oxo-3H-isobenzofuran-5-yl)ethyl]piperazin-1-yl]ethyl]benzonitrile]
76	–	N#Cc1cc(Cl)c(CCN2CCN(CCc3ccc4c(c3)COC4=O)CC2)cc1F [Example 78, 5-Chloro-2-fluoro-4-(2-{4-[2-(1-oxo-1,3-dihydro-2-benzofuran-5-yl)ethyl]piperazin-1-yl}ethyl)benzonitrile]
80	–	Cc1c(CCN2CCN(CCc3ccc4c(c3)COC4=O)CC2)ccc(C#N)c1F [Example 81, 2-Fluoro-3-methyl-4-(2-{4-[2-(1-oxo-1,3-dihydro-2-benzofuran-5-yl)ethyl]piperazin-1-yl}ethyl)benzonitrile]
160	–	N#Cc1c(F)cc(CCN2CCN(CCc3ccc([N+](=O)[O-])cc3)CC2)cc1F [Example 28, 2,6-Difluoro-4-(2-{4-[2-(4-nitrophenyl)ethyl]piperazin-1-yl}ethyl)benzonitrile]
340	–	COc1cc(CCN2CCN(CCc3cc(OC)c(C#N)cc3F)CC2)c(F)cc1C#N [Example 54, 4,4′-(Piperazine-1,4-diyldiethane-2,1-diyl)bis(5-fluoro-2-methoxybenzonitrile)]
94	–	COc1cc(CCN2CCN(CCc3ccc4c(c3)COC4=O)CC2)c(Cl)cc1C#N [Example 61, 5-Chloro-2-methoxy-4-(2-{4-[2-(1-oxo-1,3-dihydro-2-benzofuran-5-yl)ethyl]piperazin-1-yl}ethyl)benzonitrile]
98	98	COc1cc(CCN2CCN(CCc3ccc4c(c3)CC(C)OC4=O)CC2)ccc1C#N (stereo not shown) [Example 57, 2-Methoxy-4-(2-{4-[2-(3-methyl-1-oxo-3,4-dihydro-1H-isochromen-6-yl)ethyl]piperazin-1-yl}ethyl)benzonitrile]
910	–	O=C1OCc2cc(CCN3CCN(CCc4ccc(-n5cnnn5)nc4)CC3)ccc21 [Example 42, 5-[2-[4-[2-[6-(Tetrazol-1-yl)-3-pyridyl]ethyl]piperazin-1-yl]ethyl]-3H-isobenzofuran-1-one]
48	–	Cc1c(CCN2CCN(CCc3cc(F)c(C#N)cc3Cl)CC2)ccc2c1COC2=O [Example 79, 5-Chloro-2-fluoro-4-(2-{4-[2-(4-methyl-1-oxo-1,3-dihydro-2-benzofuran-5-yl)ethyl]piperazin-1-yl}ethyl)benzonitrile]
160	–	COc1c(C#N)ccc(CCN2CCN(CCc3ccc4c(c3)COC4=O)CC2)c1Cl [Example 87, 3-Chloro-2-methoxy-4-(2-{4-[2-(1-oxo-1,3-dihydro-2-benzofuran-5-yl)ethyl]piperazin-1-yl}ethyl)benzonitrile]
180	–	COc1c(C#N)ccc(CCN2CCN(CCc3ccc4c(c3)COC4=O)CC2)c1C [Example 83, 2-Methoxy-3-methyl-4-(2-{4-[2-(1-oxo-1,3-dihydro-2-benzofuran-5-yl)ethyl]piperazin-1-yl}ethyl)benzonitrile]
66	66	N#Cc1ccc2c(c1)CC[C@@H](N1CCN(CCc3ccc([N+](=O)[O-])cc3)CC1)C2 [Example 26, (6R)-6-{4-[2-(4-Nitrophenyl)ethyl]piperazin-1-yl}-5,6,7,8-tetrahydronaphthalene-2-carbonitrile]
230	–	Cc1c(CCN2CCN(CCc3c(F)cc(C#N)c(F)c3F)CC2)ccc2c1COC2=O [Example 75, 2,3,5-Trifluoro-4-(2-{4-[2-(4-methyl-1-oxo-1,3-dihydro-2-benzofuran-5-yl)ethyl]piperazin-1-yl}ethyl)benzonitrile]
200	–	Cc1c(CCN2CCN(CCc3ccc(C#N)c(OC(F)(F)F)c3)CC2)ccc2c1COC2=O [Example 69, 2-Trifluoromethoxy-4-(2-{4-[2-(4-methyl-1-oxo-1,3-dihydro-2-benzofuran-5-yl)ethyl]piperazin-1-yl}ethyl)benzonitrile]
74	–	CCOc1cc(CCN2CCN(CCc3ccc4c(c3C)COC4=O)CC2)ccc1C#N [Example 77, 2-Ethoxy-4-(2-{4-[2-(4-methyl-1-oxo-1,3-dihydro-2-benzofuran-5-yl)ethyl]piperazin-1-yl}ethyl)benzonitrile]
34	–	COc1cc(CCN2CCN(CCc3ccc4c(c3C)COC4=O)CC2)c(F)cc1C#N [Example 53, 5-Fluoro-2-methoxy-4-(2-{4-[2-(4-methyl-1-oxo-1,3-dihydro-2-benzofuran-5-yl)ethyl]piperazin-1-yl}ethyl)benzonitrile]
190	–	Cc1cc(CCN2CCN(CCc3ccc([N+](=O)[O-])cc3)CC2)ccc1C#N [Example 24, 2-Methyl-4-(2-{4-[2-(4-nitrophenyl)ethyl]piperazin-1-yl}ethyl)benzonitrile]
62	–	Cc1cc(C#N)ccc1CCN1CCN(CCc2ccc([N+](=O)[O-])cc2)CC1 [Example 23, 3-Methyl-4-(2-{4-[2-(4-nitrophenyl)ethyl]piperazin-1-yl}ethyl)benzonitrile]
270	270	COc1cc(CCN2CCN(CCc3ccc4c(c3)COC4=O)CC2C(F)(F)F)ccc1C#N (stereo not shown) [Example 56, 2-Methoxy-4-(2-{4-[2-(1-oxo-1,3-dihydro-2-benzofuran-5-yl)ethyl]-2-(trifluoromethyl)piperazin-1-yl}ethyl)benzonitrile]

The remaining lines, values behind:

SMILES	IC50 [1] [nM]	IC50 [2] [nM]
CC1(C)CN(CCc2ccc([N+](=O)[O-])cc2)CCN1CCc1ccc([N+](=O)[O-])cc1 [Example 9, 2,2-Dimethyl-1,4-bis[2-(4-nitrophenyl)ethyl]piperazine]	210	210
N#Cc1ccc2c(c1)CCCC2CN1CCN(CCc2ccc3c(c2)COC3=O)CC1 (stereo not shown) [Example 37, 5-({4-[2-(1-Oxo-1,3-dihydro-2-benzofuran-5-yl)ethyl]piperazin-1-yl}methyl)-5,6,7,8-tetrahydronaphalene-2-carbonitrile]	460	–
Cc1c(CCN2CCN(CCc3ccc(-n4cnnn4)nc3)CC2)ccc2c1COC2=O [Example 43, 4-Methyl-5-[2-[4-[2-[6-(tetrazol-1-yl)-3-pyridyl]ethyl]piperazin-1-yl]ethyl]-3H-isobenzofuran-1-one]	610	620
O=[N+]([O-])c1ccc(CCN2CCN(CCc3ccc([N+](=O)[O-])cc3)C(CF)C2)cc1 (stereo not shown) [Example 5, 2-(Fluoromethyl)-1,4-bis[2-(4-nitrophenyl)ethyl]piperazine]	180	–
Cc1c(CCN2CCN(CC3CCOc4cc(C#N)ccc43)CC2)ccc2c1COC2=O (stereo not shown) [Example 91, 4-({4-[2-(4-Methyl-1-oxo-1,3-dihydro-2-benzofuran-5-yl)ethyl]piperazin-1-yl}methyl)-3,4-dihydro-2H-chromene-7-carbonitrile]	180	–
O=[N+]([O-])c1ccc(CCN2CCN(CCc3ccc([N+](=O)[O-])cc3C(F)(F)F)CC2)cc1 [Example 15, 1-[2-(4-Nitrophenyl)ethyl]-4-{2-[4-nitro-2-(trifluoromethyl)phenyl]ethyl}piperazine]	440	–
c1cc2nonc2cc1CCN1CCN(C2CCc3cc(-n4cnnn4)ccc3C2)CC1 (stereo not shown) [Example 27, 5-(2-{4-[6-(1H-Tetrazol-1-yl)-1,2,3,4-tetrahydronaphthalen-2-yl]piperazin-1-yl}ethyl)-2,1,3-benzoxadiazole]	980	–
COC(=O)CC1CN(CCc2ccc([N+](=O)[O-])cc2)CCN1CCc1ccc([N+](=O)[O-])cc1 (stereo not shown) [Example 21, Methyl{1,4-bis[2-(4-nitrophenyl)ethyl]piperazin-2-yl}acetate]	390	–
Cc1c(C(C)CN2CCN(CC(C)c3ccc4c(c3C)COC4=O)CC2)ccc2c1COC2=O (stereo not shown) [Example 93]	220	–
O=[N+]([O-])c1ccc(CCN2CCN(CCc3ccc([N+](=O)[O-])cn3)CC2)cc1 [Example 2, 1-[2-(4-Nitrophenyl)ethyl]-4-[2-(5-nitropyridin-2-yl)ethyl]piperazine]	280	–
O=[N+]([O-])c1ccc(CCN2CC3CCC2CN3CCc2ccc([N+](=O)[O-])cc2)cc1 [Example 20, 2,5-Bis[2-(4-nitrophenyl)ethyl]-2,5-diazabicyclo[2.2.2]octane]	210	–
O=[N+]([O-])c1ccc(CCN2CC3CCC(C2)N3CCc2ccc([N+](=O)[O-])cc2)cc1 [Example 16, 3,8-Bis-[2-(4-nitrophenyl)ethyl]-3,8-diazabicyclo[3.2.1]octane]	190	–
COc1cc(CCN2CCN(CCc3ccc4c(c3)COC4=O)C(C(F)(F)F)C2)ccc1C#N (stereo not shown) [Example 51, 2-Methoxy-4-(2-{4-[2-(1-oxo-1,3-dihydro-2-benzofuran-5-yl)ethyl]-3-(trifluoromethyl)piperazin-1-yl}ethyl)benzonitrile]	650	–
N#Cc1ccc2c(c1)CCC(N1CCN(CCc3ccc4c(c3)COC4=O)CC1)C2 (stereo not shown) [Example 66, 6-{4-[2-(1-Oxo-1,3-dihydro-2-benzofuran-5-yl)ethyl]piperazin-1-yl}-5,6,7,8-tetrahydronaphthalene-2-carbonitrile]	50	–
O=[N+]([O-])c1ccc(CCN2C[C@@H]3C[C@H]2CN3CCc2ccc([N+](=O)[O-])cc2)cc1 [Example 10, (1S,4S)-2,5-Bis[2-(4-nitrophenyl)ethyl]-2,5-diazabicyclo[2.2.1]heptane]	110	110
COc1c(C#N)ccc(CCN2CCN(CCc3ccc4c(c3C)COC4=O)CC2)c1Cl [Example 88, 3-Chloro-2-methoxy-4-(2-{4-[2-(4-methyl-1-oxo-1,3-dihydro-2-benzofuran-5-yl)ethyl]piperazin-1-yl}ethyl)benzonitrile]	83	–
